From a melting point compilation (Tetko et al.; mined from patent text by program, amines drawn as free bases though some values may be those of a salt)

Compound `NCCc1cccc(N2C(=O)N(c3ccc(C(F)(F)F)cc3Cl)Cc3cnc(Nc4ccccc4)nc32)c1` has a melting point of 102 °C.
With `O=[N+]([O-])c1cc(Cl)c(CO)c(Cl)c1` the melting point was 111 to 114 °C.
Compound `CNc1nc(Br)cc(S(=O)(=O)c2ccccc2)n1` has a melting point of 142 to 143 °C.
For `COC(=O)C1CCc2cc(C(=O)c3cccs3)c(O)cc21` (stereo not drawn), the melting point was 183 to 184 °C.
`COC(=O)c1c(S(C)(=O)=O)ccc(C(=O)O)c1Cl` showed a melting point of 160 to 162 °C.
For `O=C(O)CCc1cn(Cc2ccc(OCc3coc(-c4ccccc4)n3)cc2)cc1-c1ccccc1`, the melting point was 139 to 140 °C.
`C[Si](C)(CCSCCCNC(=O)n1cc(F)c(=O)[nH]c1=O)c1ccccc1` showed a melting point of 93.5 to 94 °C.
Work on `COCc1nc2c(N)nc3cc(CCCNS(C)(=O)=O)ccc3c2n1CC(C)(C)O` yielded a melting point of 205 to 207 °C.
In the case of `O=c1[nH]ncc(Cl)c1NCCN1CCN(c2cccc(C(F)(F)F)c2)CC1`, the melting point is reported as 220 to 223 °C.
With `Cc1cc(-c2nnc3c4ccccc4c(OCc4ncn(C(C)C)n4)nn23)no1` the melting point was 179 to 181 °C.
`CC(C)C[C@@H]1OC(O)[C@H](Cc2ccccc2)NC1=O` (stereo partly drawn) gave a melting point of 84 to 84.5 °C.
With `C[C@@H](O)c1nccc(N2CCc3ccc(S(=O)(=O)N(C)C)cc3C2)n1` the melting point was 120 to 122 °C.
`CC(C)Nc1nc(-c2nc[nH]n2)cc(Cl)c1-c1c(F)cccc1Cl` showed a melting point of 152 °C.
With `COc1cc2c(cc1OCc1ccccc1)CC(C)(C)N=C2C` the melting point was 87.9 to 90 °C.
For `Cc1nc2cnc3cc(Cl)ccc3c2s1`, the melting point was 181 to 183 °C.
Compound `Cc1cn([C@H]2C=C[C@@H](O)C2)c(=O)nc1-n1cncn1` (racemic) has a melting point of 143 to 146 °C.
Work on `CCCC(CCC)n1nnc2c(Cl)nc(C)nc21` yielded a melting point of 92 to 93 °C.
Work on `NS(=O)(=O)c1ccccc1SCC(F)F` yielded a melting point of 111 to 112 °C.
In the case of `CCCCc1oc2ccc(C#N)cc2c1C(=O)c1ccc(O)cc1`, the melting point is reported as 152 to 153 °C.
In the case of `Cc1nccc(N2CCC(O)(CN3CCN(C(=O)c4ccc(F)cc4)CC3)CC2)n1`, the melting point is reported as 114 to 117 °C.
Work on `CCOC(=O)c1nn(-c2ccc(NC)cc2)c(=O)c2c(N)scc12` yielded a melting point of 211 to 213 °C.
`Cc1ccc(-c2ccc(Cl)cc2)cc1C1C(=O)COC(C)(C)C1=O` (stereo not drawn) showed a melting point of 186 to 188 °C.
In the case of `OCc1cc2ccccc2[nH]1`, the melting point is reported as 73.5 to 74.4 °C.
With `CN(C(=O)OC(C)(C)C)c1cc(Oc2ccccc2N2CCCC2)ccc1N` the melting point was 136 to 138 °C.
In the case of `O=C(Nc1ccc(C(=O)N2CCc3nc(-c4ccccn4)[nH]c3-c3ccccc32)cc1)c1ccccc1-c1ccccc1`, the melting point is reported as 240 to 242 °C.
`O=C1c2cccc(N(CCO)CCO)c2OC12CC2` showed a melting point of 74 to 76 °C.
`FC(F)(F)c1ccc(OC2CCCCO2)c(Sc2ccccc2)c1` (stereo not drawn) showed a melting point of 72 to 73 °C.
Compound `CC(C)(C)OC(=O)NC1CCCOCC=CC2CC2(C(=O)NS(=O)(=O)C2CC2)NC(=O)C2CC(OC(=O)C3CCCCC3)CN2C1=O` (stereo not drawn) has a melting point of 128 to 130 °C.
For `COc1cc(OC)c(OC)cc1C=CC=O`, the melting point was 140 °C.
Compound `CCNC(=O)N(CC)C(=O)Nc1ccn(Cc2ccccc2Cl)c(=O)c1NC(=O)N[C@@H](CC(=O)O)c1ccc(C)cc1` has a melting point of 128 to 130 °C.
For `O=c1[nH]c2ccc(CCN3CCN(c4cccc5cccnc45)CC3)cc2o1`, the melting point was 200 °C.
Work on `COc1cc2c(cc1OC)CN(CCCc1ccc(N)cc1)CC2` yielded a melting point of 138 °C.
`CC(C)(O)C(=O)Nc1ccc2oc3ccccc3c2c1` showed a melting point of 134 to 137 °C.
Work on `CCOC(=O)CCCSc1nnc(S)s1` yielded a melting point of 107 to 108 °C.
For `CC(=O)c1c(O)ccc2[nH]ncc12`, the melting point was 188 to 191 °C.
With `CNc1nc(-c2cccc(Oc3ccccc3)c2)c2cc(OC)c(OC)cc2n1` the melting point was 157 to 159 °C.
Compound `CC(C)(C)OC(=O)NC(Cc1ccccc1)C(=O)Oc1ccc(/C=c2\[nH]c(=O)/c(=C/c3ccccc3)[nH]c2=O)nc1` (stereo not drawn) has a melting point of 188 °C.
`CCCc1c(O)ccc(C(=O)OCc2ccccc2)c1O` gave a melting point of 86 to 88 °C.
For `CC1=NC(=Cc2cccc(-c3ccc(Cl)cc3)c2)C(=O)O1`, the melting point was 150 °C.
`CCOC(=O)c1cn(Cc2ccccc2)nc1OCc1ccc(OCc2nc(-c3ccco3)oc2C)c(C)c1` showed a melting point of 120 to 121 °C.
Compound `CSc1ccc(C(C)=Cc2ccc3ccccc3c2)cc1` has a melting point of 161 °C.
In the case of `CC(C)Oc1cccc(-c2nc3ncccc3o2)c1`, the melting point is reported as 68.5 to 70.5 °C.
`COc1ccc(P(=O)(c2ccccc2)c2ccccc2)c(I)c1OC` gave a melting point of 178 to 180 °C.
For `CCC(C(=O)c1ccc(C(C)C)c(OS(N)(=O)=O)c1C(C)C)c1ccccc1` (stereo not drawn), the melting point was 142 to 145 °C.
For `O=C(Nc1cc(-c2ccnc3c(C(=O)c4cccs4)cnn23)ccc1F)c1ccncc1`, the melting point was 175 to 179 °C.
Work on `COc1cc2c(cc1OC)CC(NC(=O)C1CCCN1)CC2` (stereo not drawn) yielded a melting point of 108 to 109 °C.
`COc1cc(CCCN2CCc3cc(OC)c(OC)cc3C2)ccc1NC(=O)c1cccc2c(=O)c3cccc(C)c3[nH]c12` gave a melting point of 174 °C.
With `CC(=O)c1cc2c(s1)CCC1CC(=O)N(c3ccc(C)cc3)N=C21` (stereo not drawn) the melting point was 191 to 193 °C.
`COc1cccc2c1C(=O)c1c(OC)cc(C(=O)N(C)OCc3ccccc3)cc1C2=O` gave a melting point of 170 to 171 °C.
Work on `CC(C)(C)C(=O)C(N)=O` yielded a melting point of 69 to 70 °C.
`O=C1/C(=C(\NCCO)c2ccccc2)Sc2ccccc21` gave a melting point of 122 to 123 °C.
`CS(=O)(=O)Nc1cc2occc(=O)c2cc1Oc1ccccc1N` showed a melting point of 238 to 240 °C.
Work on `Brc1cnc(SCc2ccccc2)nc1` yielded a melting point of 68 to 69 °C.
With `CC/C=C\C#CCCCCCCCCCCO` the melting point was 6 to 7 °C.
Work on `Cc1oc(-c2ccccc2)nc1COc1ccc(COc2cccc(CC(=O)O)c2)cc1` yielded a melting point of 159 to 160 °C.
Compound `O=C1NC(=O)C(=Cc2ccc(SCCc3ccccc3)cc2)S1` has a melting point of 182 to 183 °C.
`CCOc1nn(-c2ccccn2)cc1CCCOc1ccc(CCC(=O)O)cc1OC` showed a melting point of 92 to 93 °C.
`CCC(C)(N=NC(C)(CC)NC(=O)NNC(C)(C)C)NC(=O)NNC(C)(C)C` (stereo not drawn) showed a melting point of 155 to 160 °C.
`COc1ccc(Nc2ccc(Nc3ncnc4ccsc34)cc2)cc1` gave a melting point of 181 to 186 °C.
`O=C(Cn1c(=O)sc2ncc(Cl)cc21)N1CCN(CCO)CC1` gave a melting point of 198 to 200 °C.
`CC(C)(C)OC(=O)N1CCc2c(n(CCOc3ccccc3)c3c(Cl)cc(Cl)cc23)CC1` showed a melting point of 154 to 155 °C.
For `CCCCCCCCCCOc1cnc(-c2ccccc2C#CCC(C)O)nc1` (single isomer, unassigned; (-)), the melting point was 71 to 72 °C.
For `CCOCc1nc(N)c(N)c(=O)[nH]1`, the melting point was 173 to 175 °C.
`Cc1ccc(-c2nc3ccc(O)cc3n2Cc2ccccc2C(F)(F)F)cc1C` showed a melting point of 178 °C.
For `CCOC(=O)c1c(C)nc2ccc(NCCCN3CCC(OC(c4ccccc4)c4ccccc4)CC3)nn12`, the melting point was 117 to 119 °C.
Compound `C/C=C/c1ccc2c(NCc3ccc(NC(=O)C4CCN(Cc5ccccc5)CC4)cc3)nc(N(C)C)nc2c1` has a melting point of 154 °C.
Work on `CCCCCCN(Cc1ccc2ccccc2c1)c1c(N[C@@H](Cc2ccccc2)C(=O)O)c(=O)c1=O` yielded a melting point of 62 to 70 °C.
With `O=C(C=Cc1ccc(Cl)cc1)NC1CCCNC(=O)C1` (stereo not drawn) the melting point was 256 to 257 °C.
Work on `COc1cc2c(cc1OC)OCCC(C(=O)N1CCN(C(=O)c3cc(OC)c(OC)c(OC)c3)CC1)=C2` yielded a melting point of 132 to 134 °C.
`CC(=C(c1ccc(F)cc1)c1ccc(F)cc1)c1nnnn1C` showed a melting point of 146 to 147 °C.
Compound `CC(=O)c1cc(S(=O)(=O)c2ccccc2)ccc1OCc1ccccc1` has a melting point of 80.5 to 82.4 °C.
In the case of `CNCC1CN(c2c(F)cc3c(=O)c(C(=O)O)cn(C4CC4)c3c2Cl)CC1C` (stereo not drawn), the melting point is reported as 253 to 255 °C.
Work on `O=C(c1cccnc1)c1cccs1` yielded a melting point of 90 to 91.5 °C.
Compound `CC(C)(C)OC(=O)NC1Cc2ccc(NC(=O)c3ccccc3-c3ccc(C(F)(F)F)cc3)cc2C1` (stereo not drawn) has a melting point of 198 to 201 °C.
For `N=C(N)Nc1nc(-c2cccc([N+](=O)[O-])c2)no1`, the melting point was 290 to 291 °C.
`CC1(C)Oc2ccc(C#N)cc2C(N(C(N)=O)c2ccc3c(c2)CN(Cc2ccccc2)C3)C1O` (stereo not drawn) gave a melting point of 168 to 175 °C.
Compound `COC(=O)C1CC(=O)n2c3c(c4cc(F)ccc42)CCNC31` (stereo not drawn) has a melting point of 172 °C.
`CCOC(=O)CN1C(=O)c2cccc3c(Sc4ccccc4)ccc(c23)C1=O` showed a melting point of 132 to 134 °C.
`CCCCCCCCCCC1CN(O)C(=O)N1C` (stereo not drawn) gave a melting point of 47 to 48 °C.
In the case of `CC(=O)NC[C@H]1CN(c2ccc3c(c2)CCC(C)N3C(=O)OCc2ccccc2)C(=O)O1` (stereo partly drawn), the melting point is reported as 126 to 129 °C.
In the case of `COc1ccccc1N1CCN(CCCNC(=O)c2cccc3c(=O)cc(-c4ccccc4)[nH]c23)CC1`, the melting point is reported as 135 to 140 °C.
For `CCOC(=O)C1=NN(c2cccc3ccccc23)C(C(=O)OCC)=NN1c1ccccc1`, the melting point was 124 to 125 °C.
`C[C@H](N)C(=O)NC1N=C(c2ccccc2Cl)c2cc(Cl)ccc2N(C)C1=O` (stereo partly drawn) gave a melting point of 232 to 233 °C.
`N#CCCNC(=O)c1cccc(-c2cccc3nn(Cc4cccc(F)c4)cc23)c1` showed a melting point of 170 to 171 °C.
`CC1(C)C(=O)Nc2ccc(C#N)cc2N(CC2CC2)C1=O` gave a melting point of 234 to 236 °C.
`CC(C)CCC1(CCC(C)C)c2cc(Cl)ccc2-c2ccc(Cl)cc21` showed a melting point of 116 to 118 °C.
For `CCCC(CCC)n1c(CC)nc2c1c(=O)n(C)c(=O)n2-c1ccc(Cl)cc1Cl`, the melting point was 185 to 186 °C.
`Cc1cc([N+](=O)[O-])ccc1N1CCN(C(=O)OC(C)(C)C)CC1` gave a melting point of 122 to 123 °C.
`CS(=O)(=O)N1CCC(Nc2nc(CCC(F)(F)F)nc(Nc3ccc(F)c(Cl)c3)n2)CC1` gave a melting point of 192 to 193 °C.
`Nc1ccc(C2=NCCO2)cc1` showed a melting point of 163 to 165 °C.
Work on `CC(=O)OC1(N=NC2(OC(C)=O)CC(C)CC(C)(C)C2)CC(C)CC(C)(C)C1` (stereo not drawn) yielded a melting point of 111 to 115 °C.
With `CCC(OC)c1ccc(Cl)c2nc3n(c12)CCCN3c1ccc(Cl)cc1Cl` (stereo not drawn) the melting point was 136 to 137 °C.
With `O=C(Cc1csc(-c2cnccn2)n1)NC1CCN(Cc2ccc(Cl)c(Cl)c2)CC1` the melting point was 186 to 189 °C.
`CN1C(=O)C2(CCN(CCCC(=O)c3ccc(F)cc3)CC2)c2ccccc21` gave a melting point of 95 to 96.5 °C.
With `COC(=O)c1cc(CC(C)NCC(O)c2ccc(O)c(CO)c2)ccc1OC` (stereo not drawn) the melting point was 69 to 73 °C.
With `O=C(Nc1ccc(C(=O)N2C[C@H]3C[C@H](F)CN3c3ccccc32)cc1)c1ccccc1-c1ccccc1` the melting point was 136 to 145 °C.
`CC(C)(OCc1nn(Cc2ccccc2)c2ccc(Br)cc12)C(=O)O` gave a melting point of 168 to 170 °C.
Compound `OC[C@H](O)CSc1ccccc1` has a melting point of 79 to 81 °C.
